Source: article PMC5862592, “CDK8/19 inhibition induces premature G1/S transition and ATR-dependent cell death in prostate cancer cells” (Oncotarget, 2018)
Read-outs that look alike come from different tables or passages of the source.

Assays:
Assay in all cases: biochemical
Design in all cases: KINOMEscan active site-directed competition binding assay (DiscoveRx), 456 kinases, per cent of control at 300 nM
Settings in all cases: read-out: Percent of Control (%)
[1] = biological target: GAK (Homo sapiens, UniProt O14976)
Method: (§1) Kinase selectivity of T-474 and T-418 was evaluated at 300 nmol/L using a panel of 456 kinases at DiscoveRx (KINOMEscan). The platform employs an active site-directed competition binding assay to quantitatively measure interactions between test compounds and kinases. […] In VCaP prostate cancer cells, treatment with T-474 or T-418 suppressed the phosphorylation of the known CDK8 substrate STAT1 at Ser727 both in the absence and in the presence of IFN-γ (Figure 1B), which stimulates CDK8-mediated STAT1 phosphorylation.

[2] = biological target: T1, CDC2L5 (Homo sapiens, UniProt Q14004)
T1 construct: gene CDK13
Method: as §1

[3] = biological target: HIPK4 (Homo sapiens, UniProt Q8NE63)
Method: as §1

[4] = biological target: SNRK (Homo sapiens, UniProt Q9NRH2)
Sequence of SNRK (Q9NRH2 whole entry): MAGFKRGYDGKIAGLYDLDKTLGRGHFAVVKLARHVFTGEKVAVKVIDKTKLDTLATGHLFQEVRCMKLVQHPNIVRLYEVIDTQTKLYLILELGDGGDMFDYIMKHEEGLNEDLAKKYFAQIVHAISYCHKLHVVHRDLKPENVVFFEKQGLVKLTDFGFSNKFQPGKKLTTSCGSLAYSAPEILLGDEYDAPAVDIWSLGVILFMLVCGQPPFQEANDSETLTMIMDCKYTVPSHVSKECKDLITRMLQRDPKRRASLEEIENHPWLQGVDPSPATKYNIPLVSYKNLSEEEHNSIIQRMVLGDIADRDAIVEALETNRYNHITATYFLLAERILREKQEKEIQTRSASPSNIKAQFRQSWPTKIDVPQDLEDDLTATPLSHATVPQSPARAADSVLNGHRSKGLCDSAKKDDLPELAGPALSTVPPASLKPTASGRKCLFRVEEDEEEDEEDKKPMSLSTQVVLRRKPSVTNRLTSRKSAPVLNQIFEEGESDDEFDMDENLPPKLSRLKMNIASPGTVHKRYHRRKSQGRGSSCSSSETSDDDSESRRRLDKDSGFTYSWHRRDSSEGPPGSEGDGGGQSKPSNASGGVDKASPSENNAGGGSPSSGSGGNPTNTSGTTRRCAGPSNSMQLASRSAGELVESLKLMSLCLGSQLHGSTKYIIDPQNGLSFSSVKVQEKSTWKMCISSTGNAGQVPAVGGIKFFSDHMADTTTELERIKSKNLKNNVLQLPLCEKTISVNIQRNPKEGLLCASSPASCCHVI
Method: as §1

[5] = biological target: T2, ABL1(E255K)-phosphorylated (Homo sapiens, UniProt P00519, E255K)
T2 construct: phosphorylated
Method: as §1

[6] = biological target: CSNK1E (Homo sapiens, UniProt P49674)
Method: as §1

[7] = biological target: MYLK4 (Homo sapiens, UniProt Q86YV6)
Method: as §1

[8] = biological target: CDK9 (Homo sapiens, UniProt P50750)
Sequence of CDK9 (P50750 whole entry): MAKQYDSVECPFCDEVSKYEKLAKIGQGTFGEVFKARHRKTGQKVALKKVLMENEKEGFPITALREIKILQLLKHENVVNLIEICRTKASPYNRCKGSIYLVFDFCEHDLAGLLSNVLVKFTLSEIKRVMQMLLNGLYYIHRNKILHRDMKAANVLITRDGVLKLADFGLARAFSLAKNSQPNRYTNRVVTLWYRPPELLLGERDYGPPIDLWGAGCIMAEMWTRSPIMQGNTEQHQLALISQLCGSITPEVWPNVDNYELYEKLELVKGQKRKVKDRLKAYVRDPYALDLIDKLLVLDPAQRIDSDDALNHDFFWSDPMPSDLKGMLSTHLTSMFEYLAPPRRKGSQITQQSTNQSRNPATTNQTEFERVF
Method: as §1

[9] = biological target: T3, RIPK5 (Homo sapiens, UniProt Q6XUX3)
T3 construct: gene DSTYK
T3 sequence (Q6XUX3 whole entry): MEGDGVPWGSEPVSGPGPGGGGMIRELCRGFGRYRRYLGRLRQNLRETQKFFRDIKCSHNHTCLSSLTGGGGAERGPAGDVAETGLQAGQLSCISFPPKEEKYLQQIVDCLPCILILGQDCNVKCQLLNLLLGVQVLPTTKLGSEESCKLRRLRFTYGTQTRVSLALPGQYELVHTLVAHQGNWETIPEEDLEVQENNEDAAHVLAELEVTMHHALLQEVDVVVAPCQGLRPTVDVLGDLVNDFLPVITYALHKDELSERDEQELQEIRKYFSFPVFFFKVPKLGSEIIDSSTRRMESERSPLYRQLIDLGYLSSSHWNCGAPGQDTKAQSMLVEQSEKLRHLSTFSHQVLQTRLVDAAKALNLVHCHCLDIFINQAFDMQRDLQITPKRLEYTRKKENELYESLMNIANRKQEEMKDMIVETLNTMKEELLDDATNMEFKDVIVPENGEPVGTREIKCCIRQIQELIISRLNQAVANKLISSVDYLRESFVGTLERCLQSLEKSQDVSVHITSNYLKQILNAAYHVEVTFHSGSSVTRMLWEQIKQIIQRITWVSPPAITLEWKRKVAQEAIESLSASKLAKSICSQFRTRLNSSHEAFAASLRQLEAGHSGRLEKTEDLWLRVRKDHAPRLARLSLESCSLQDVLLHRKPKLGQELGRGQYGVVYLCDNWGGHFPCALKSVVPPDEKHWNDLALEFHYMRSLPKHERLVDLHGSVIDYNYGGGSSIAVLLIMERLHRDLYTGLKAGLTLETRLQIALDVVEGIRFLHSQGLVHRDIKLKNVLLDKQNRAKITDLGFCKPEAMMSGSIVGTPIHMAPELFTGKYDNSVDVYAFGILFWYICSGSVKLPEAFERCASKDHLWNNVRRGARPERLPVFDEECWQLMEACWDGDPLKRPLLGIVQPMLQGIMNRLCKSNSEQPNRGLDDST
Method: as §1

[10] = biological target: T4, p38-gamma (Homo sapiens, UniProt P53778)
T4 construct: gene MAPK12
T4 sequence (P53778 whole entry): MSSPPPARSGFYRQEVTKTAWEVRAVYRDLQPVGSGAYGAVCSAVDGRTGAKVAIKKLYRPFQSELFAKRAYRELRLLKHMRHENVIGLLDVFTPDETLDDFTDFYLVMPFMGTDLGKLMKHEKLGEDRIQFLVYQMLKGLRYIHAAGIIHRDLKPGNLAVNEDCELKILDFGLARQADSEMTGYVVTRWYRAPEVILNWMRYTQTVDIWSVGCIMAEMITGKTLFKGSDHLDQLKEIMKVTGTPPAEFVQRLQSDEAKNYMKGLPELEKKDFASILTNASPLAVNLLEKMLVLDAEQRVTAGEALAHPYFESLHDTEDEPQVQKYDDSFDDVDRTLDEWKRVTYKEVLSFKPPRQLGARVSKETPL
Method: as §1

[11] = biological target: FGFR4 (Homo sapiens, UniProt P22455)
Sequence of FGFR4 (P22455 whole entry): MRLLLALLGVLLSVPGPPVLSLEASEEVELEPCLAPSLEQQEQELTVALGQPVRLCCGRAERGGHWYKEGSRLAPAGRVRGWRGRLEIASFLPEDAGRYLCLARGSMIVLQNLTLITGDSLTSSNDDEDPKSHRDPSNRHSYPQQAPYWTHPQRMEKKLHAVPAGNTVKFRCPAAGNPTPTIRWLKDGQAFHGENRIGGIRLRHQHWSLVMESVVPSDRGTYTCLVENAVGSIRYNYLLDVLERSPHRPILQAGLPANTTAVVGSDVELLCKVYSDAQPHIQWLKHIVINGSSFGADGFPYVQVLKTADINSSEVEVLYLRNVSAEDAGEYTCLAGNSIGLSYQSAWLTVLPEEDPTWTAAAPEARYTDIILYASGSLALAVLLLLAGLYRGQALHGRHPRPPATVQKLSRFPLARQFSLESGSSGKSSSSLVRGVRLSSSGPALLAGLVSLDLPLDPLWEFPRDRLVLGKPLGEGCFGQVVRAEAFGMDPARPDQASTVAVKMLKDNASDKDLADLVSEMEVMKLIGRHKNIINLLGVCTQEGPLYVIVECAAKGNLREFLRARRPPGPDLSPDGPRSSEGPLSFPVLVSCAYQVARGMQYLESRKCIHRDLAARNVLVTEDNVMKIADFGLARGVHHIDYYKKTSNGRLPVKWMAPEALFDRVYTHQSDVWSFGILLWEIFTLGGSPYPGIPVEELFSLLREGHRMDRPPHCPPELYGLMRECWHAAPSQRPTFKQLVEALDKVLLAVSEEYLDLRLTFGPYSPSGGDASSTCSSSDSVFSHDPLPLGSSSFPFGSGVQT
Method: as §1

[12] = biological target: T5, ADCK4 (Homo sapiens, UniProt Q96D53)
T5 construct: gene COQ8B
Method: as §1

[13] = biological target: EPHA8 (Homo sapiens, UniProt P29322)
Method: as §1

[14] = biological target: T6, ABL1(Y253F)-phosphorylated (Homo sapiens, UniProt P00519, Y253F)
T6 construct: phosphorylated
Method: as §1

[15] = biological target: T7, PIP5K2B (Homo sapiens, UniProt P78356)
T7 construct: gene PIP4K2B
T7 sequence (P78356 whole entry): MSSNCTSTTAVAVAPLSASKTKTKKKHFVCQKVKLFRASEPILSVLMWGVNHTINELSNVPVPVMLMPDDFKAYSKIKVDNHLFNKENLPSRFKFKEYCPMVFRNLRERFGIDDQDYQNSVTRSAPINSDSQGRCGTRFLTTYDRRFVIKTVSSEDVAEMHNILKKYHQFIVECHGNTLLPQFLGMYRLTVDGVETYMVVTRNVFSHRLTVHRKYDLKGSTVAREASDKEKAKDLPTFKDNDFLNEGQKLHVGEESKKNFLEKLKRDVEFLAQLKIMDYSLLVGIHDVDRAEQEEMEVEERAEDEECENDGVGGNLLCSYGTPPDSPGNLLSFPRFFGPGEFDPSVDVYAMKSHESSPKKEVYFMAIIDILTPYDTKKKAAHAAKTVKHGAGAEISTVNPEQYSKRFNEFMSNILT
Method: as §1

[16] = biological target: LIMK1 (Homo sapiens, UniProt P53667)
Sequence of LIMK1 (P53667 whole entry): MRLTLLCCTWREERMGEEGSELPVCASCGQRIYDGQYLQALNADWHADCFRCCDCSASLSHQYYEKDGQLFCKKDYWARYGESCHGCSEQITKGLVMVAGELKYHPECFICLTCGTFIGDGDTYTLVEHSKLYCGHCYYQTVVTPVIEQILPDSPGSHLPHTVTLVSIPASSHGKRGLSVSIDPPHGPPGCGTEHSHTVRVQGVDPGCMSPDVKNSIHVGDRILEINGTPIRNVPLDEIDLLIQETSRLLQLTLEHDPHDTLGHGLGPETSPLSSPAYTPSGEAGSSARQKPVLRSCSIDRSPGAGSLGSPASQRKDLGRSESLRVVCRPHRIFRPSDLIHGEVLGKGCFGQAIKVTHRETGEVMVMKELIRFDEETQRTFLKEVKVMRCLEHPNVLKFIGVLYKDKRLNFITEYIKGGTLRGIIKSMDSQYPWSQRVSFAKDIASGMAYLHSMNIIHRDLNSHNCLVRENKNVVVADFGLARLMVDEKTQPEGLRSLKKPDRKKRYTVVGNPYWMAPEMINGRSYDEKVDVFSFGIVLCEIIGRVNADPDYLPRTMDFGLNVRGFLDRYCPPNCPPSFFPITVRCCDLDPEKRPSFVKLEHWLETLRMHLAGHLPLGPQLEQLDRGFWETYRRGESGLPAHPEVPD
Method: as §1

[17] = biological target: T8, BRK (Homo sapiens, UniProt Q13882)
T8 construct: gene PTK6
T8 sequence (Q13882 whole entry): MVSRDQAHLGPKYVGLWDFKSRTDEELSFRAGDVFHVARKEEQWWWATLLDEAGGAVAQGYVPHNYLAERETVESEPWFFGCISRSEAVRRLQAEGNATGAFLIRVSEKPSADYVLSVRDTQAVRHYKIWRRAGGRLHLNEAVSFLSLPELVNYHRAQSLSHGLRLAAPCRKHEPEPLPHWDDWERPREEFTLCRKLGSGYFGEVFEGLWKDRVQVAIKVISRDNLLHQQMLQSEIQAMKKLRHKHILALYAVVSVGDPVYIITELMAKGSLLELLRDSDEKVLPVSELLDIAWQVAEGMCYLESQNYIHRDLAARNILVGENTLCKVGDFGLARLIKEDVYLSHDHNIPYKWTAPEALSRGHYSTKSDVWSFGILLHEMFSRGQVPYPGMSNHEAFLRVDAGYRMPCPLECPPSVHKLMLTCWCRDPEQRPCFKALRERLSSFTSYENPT
Method: as §1

[18] = biological target: FLT3(N841I) (Homo sapiens, UniProt P36888, N841I)
Method: as §1

[19] = biological target: EGFR(G719S) (Homo sapiens, UniProt P00533, G719S)
Method: as §1

[20] = biological target: PIK3CA(H1047L) (Homo sapiens, UniProt P42336, H1047L)
Method: as §1

[21] = biological target: ZAP70 (Homo sapiens, UniProt P43403)
Method: as §1

[22] = biological target: CDK8 (Homo sapiens, UniProt P49336)
Method: as §1

`O=C(/C=C/c1cnccc1-c1ccc(F)cc1)Nc1ccc(CCc2nnco2)cc1` [T-418, (2E)-3-(4-(4-fluorophenyl)pyridin-3-yl)-N-(4-(2-(1,3,4-oxadiazol-2-yl)ethyl)phenyl)acrylamide] was tested. Which remaining binding at 0.3 µM ([1]; sheet T-418) did it give?
The remaining binding at 0.3 µM was 100%.

What about the remaining binding at 0.3 µM ([2]; sheet T-418) of the same compound?
Its remaining binding at 0.3 µM is 87%.

What about the remaining binding at 0.3 µM ([3]; sheet T-418) of the same compound?
Its remaining binding at 0.3 µM is 84%.

What about the remaining binding at 0.3 µM ([4]; sheet T-418) of the same compound?
Its remaining binding at 0.3 µM is 73%.

What about the remaining binding at 0.3 µM ([5]; sheet T-418) of the same compound?
Its remaining binding at 0.3 µM is 83%.

What about the remaining binding at 0.3 µM ([6]; sheet T-418) of the same compound?
The remaining binding at 0.3 µM was 89%.

What about the remaining binding at 0.3 µM ([7]; sheet T-418) of the same compound?
The remaining binding at 0.3 µM was 80%.

What about the remaining binding at 0.3 µM ([8]; sheet T-418) of the same compound?
Its remaining binding at 0.3 µM is 83%.

And the remaining binding at 0.3 µM ([9]; sheet T-418)?
The remaining binding at 0.3 µM was 86%.

What about the remaining binding at 0.3 µM ([10]; sheet T-418) of the same compound?
Its remaining binding at 0.3 µM is 86%.

And the remaining binding at 0.3 µM ([11]; sheet T-418)?
Its remaining binding at 0.3 µM is 80%.

What about the remaining binding at 0.3 µM ([12]; sheet T-418) of the same compound?
Its remaining binding at 0.3 µM is 91%.

And the remaining binding at 0.3 µM ([13]; sheet T-418)?
The remaining binding at 0.3 µM was 88%.

And the remaining binding at 0.3 µM ([14]; sheet T-418)?
Its remaining binding at 0.3 µM is 98%.

What about the remaining binding at 0.3 µM ([15]; sheet T-418) of the same compound?
The remaining binding at 0.3 µM was 94%.

What about the remaining binding at 0.3 µM ([16]; sheet T-418) of the same compound?
The remaining binding at 0.3 µM was 100%.

What about the remaining binding at 0.3 µM ([17]; sheet T-418) of the same compound?
The remaining binding at 0.3 µM was 87%.

What about the remaining binding at 0.3 µM ([18]; sheet T-418) of the same compound?
The remaining binding at 0.3 µM was 79%.

What about the remaining binding at 0.3 µM ([19]; sheet T-418) of the same compound?
Its remaining binding at 0.3 µM is 68%.

What about the remaining binding at 0.3 µM ([20]; sheet T-418) of the same compound?
The remaining binding at 0.3 µM was 100%.

And the remaining binding at 0.3 µM ([21]; sheet T-418)?
The remaining binding at 0.3 µM was 86%.

And the remaining binding at 0.3 µM ([22]; sheet T-418)?
The remaining binding at 0.3 µM was 48%.

For `Cc1ncccc1Oc1sc(C(N)=O)c2c1-c1c(cnn1C)CC2` [T-474, 1-methyl-8-((2-methylpyridin-3-yl)oxy)-4,5-dihydro-1H-thieno[3,4-g]indazole-6-carboxamide], which remaining binding at 0.3 µM [1] is on record?
The remaining binding at 0.3 µM was 92%.

What about the remaining binding at 0.3 µM [2] of the same compound?
The remaining binding at 0.3 µM was 86%.

And the remaining binding at 0.3 µM [3]?
The remaining binding at 0.3 µM was 68%.

And the remaining binding at 0.3 µM [4]?
Its remaining binding at 0.3 µM is 71%.

And the remaining binding at 0.3 µM [5]?
Its remaining binding at 0.3 µM is 83%.

What about the remaining binding at 0.3 µM [6] of the same compound?
The remaining binding at 0.3 µM was 76%.

And the remaining binding at 0.3 µM [7]?
The remaining binding at 0.3 µM was 90%.

What about the remaining binding at 0.3 µM [8] of the same compound?
Its remaining binding at 0.3 µM is 80%.

And the remaining binding at 0.3 µM [9]?
Its remaining binding at 0.3 µM is 100%.

What about the remaining binding at 0.3 µM [10] of the same compound?
Its remaining binding at 0.3 µM is 100%.

What about the remaining binding at 0.3 µM [11] of the same compound?
The remaining binding at 0.3 µM was 97%.

And the remaining binding at 0.3 µM [12]?
Its remaining binding at 0.3 µM is 92%.

What about the remaining binding at 0.3 µM [13] of the same compound?
The remaining binding at 0.3 µM was 91%.

And the remaining binding at 0.3 µM [14]?
Its remaining binding at 0.3 µM is 100%.

And the remaining binding at 0.3 µM [15]?
Its remaining binding at 0.3 µM is 100%.

What about the remaining binding at 0.3 µM [16] of the same compound?
Its remaining binding at 0.3 µM is 100%.

What about the remaining binding at 0.3 µM [17] of the same compound?
Its remaining binding at 0.3 µM is 100%.

And the remaining binding at 0.3 µM [18]?
Its remaining binding at 0.3 µM is 97%.

What about the remaining binding at 0.3 µM [19] of the same compound?
Its remaining binding at 0.3 µM is 92%.

What about the remaining binding at 0.3 µM [20] of the same compound?
Its remaining binding at 0.3 µM is 100%.

And the remaining binding at 0.3 µM [21]?
Its remaining binding at 0.3 µM is 100%.

What about the remaining binding at 0.3 µM [22] of the same compound?
Its remaining binding at 0.3 µM is 9.8%.
